Assay results taken from EP4541363A1, “USE OF THE (+)-ELATOL COMPOUND FOR TREATING OR PREVENTING A NAEGLERIA FOWLERI INFECTION” (Universidad de la Laguna, priority 2022, dated 2023).
In brackets after ≈: the same amount, converted by molar mass. Where two headings read alike, the source gives them in different places.

How the values were obtained:
[1] = test system: Naegleria fowleri ATCC® 30215™; test: In vitro activity against Naegleria fowleri, alamarBlue colorimetric assay, strain ATCC 30215; assay type: cell-based; conditions: for IC50: Naegleria fowleri, ATCC30215; for IC50 / ATCC® 30215™ IC50: Table 2, strain ATCC® 30215™, 48 hours at 37°C, mean ± standard deviation; for ATCC® 30215™ SI: selectivity index, CC50 in J774A.1 versus IC50 in strain ATCC® 30215™
Procedure: (§1) Two strains of Naegleria fowleri obtained from the American Type Culture Collection (ATCC® 30808™ and ATCC® 30215™) were used (LG Promochem, Barcelona, Spain). Both strains were grown in 2% (w/v) Bacto Casitone (Thermo Fisher Scientific, Madrid, Spain) supplemented with 10% (v/v) fetal bovine serum, 0.3 µg/ml penicillin G sodium salt and 0.5 mg/ml streptomycin sulphate (Sigma-Aldrich, Madrid, Spain) at 37°C.
(§2) All tested compounds were dissolved in dimethyl sulfoxide (DMSO). The in vitro activity of the selected compounds was assessed by a colorimetric assay based on the alamarBlue® reagent. Amoebas were seeded in 96-well plates at a concentration of 2 × 10^5 cells/ml ([…]). Next, serial dilutions (in the same medium as the amoebas) of the compound were prepared and added ([…]) to the wells containing the Naegleria fowleri cells. Lastly, 10% of the total volume of alamarBlue® was added to the wells and incubated under gentle stirring at 37°C for 48 hours. After that time, the emitted fluorescence was read on an EnSpire® Multimode Plate Reader (PerkinElmer, Spain) using a […] (Rizo-Liendo A. et al. "In Vitro Activity of Statins against Naegleria fowleri."; Pathog, vol. 8, no. 3, p. 122 - 2019; doi: 10.3390/ pathogens8030122).

[2] = Cytotoxicity assay based on alamarBlue reagent; assay type: cell-based; conditions: mouse, cytotoxic concentration 50 against murine macrophages J774A.1, 24 hours at 37°C, 5% CO2, mean ± standard deviation
Procedure: (§3) The cells were cultured in DMEM (Dulbecco's Modified Eagle's Medium) supplemented with 10% fetal bovine serum and 10 µg/ml gentamicin (Sigma-Aldrich, Madrid, Spain). The culture was maintained at 37°C in a 5% CO2 atmosphere. To assess cytotoxicity, an assay based on the alamarBlue® reagent was carried out. Briefly, the murine macrophages (2 × 10^5 cells/ml) were incubated with serial dilutions of the test compound that were performed in the same culture medium. Lastly, alamarBlue® was added to each well and kept at 37°C and 5% CO2 for 24 hours.

[3] = test system: Naegleria fowleri ATCC® 30808™; test: In vitro activity against Naegleria fowleri, alamarBlue colorimetric assay, strain ATCC 30808; assay type: cell-based; conditions: for IC50 / ATCC® 30808™ IC50: strain ATCC® 30808™, 48 hours at 37°C, mean ± standard deviation; for ATCC® 30808™ SI: selectivity index, CC50 in J774A.1 versus IC50 in strain ATCC® 30808™
Procedure: as §1, §2

Naegleria fowleri = conditions: infected PAM patients; alone or in combination with other medicines; cited from earlier work
[4] = test system: murine macrophages J774A.1; test: Cytotoxicity assay based on alamarBlue reagent; assay type: cell-based; conditions: cytotoxic concentration 50 against murine macrophages J774A.1; 24 hours at 37°C, 5% CO2; mean ± standard deviation
Procedure: as §3

[5] = Naegleria fowleri, ATCC30808, Table 2, read-out: ATCC® 30808™ IC50

Compound | ATCC® 30215™ SI [1] | ATCC® 30808™ SI [3] | IC50 ([3]; Table 1) | other results
C[C@@H]1[C@H](O)[C@@H](C)/C=C/C=C/C=C/C=C/C=C/C=C/C=C/[C@H](O[C@@H]2O[C@H](C)[C@@H](O)[C@H](N)[C@@H]2O)C[C@@H]2O[C@](O)(C[C@@H](O)C[C@@H](O)[C@H](O)CC[C@@H](O)C[C@@H](O)CC(=O)O[C@H]1C)C[C@H](O)[C@H]2C(=O)O [Amphotericin B] | > 1333.33 | > 1818.18 | – | IC50 [1]: 0.15 ± 0.02 µg/mL (≈ 0.162 µM); CC50 at 24 h ([2]; j774a.1 macrophages): > 200 µg/mL; IC50 [3, 5]: 0.11 ± 0.03 µg/mL (≈ 0.119 µM); patients recover at least partially after its administration (Naegleria fowleri): 8%
C=C1CC(O)C(Br)C(C)(C)C12CC=C(C)CC2 (single isomer, unassigned; (-)) [(-)-10-bromochamigra-3,7(14)-dien-9-ol] | – | – | > 25 µg/mL | –
CCCCCCCCCCCCCCCCOP(=O)([O-])OCC[N+](C)(C)C [Miltefosine] | 1.56 | 3.30 | – | IC50 [1]: 33.2 ± 2.95 µg/mL (≈ 81.6 µM); CC50 at 24 h [2]: 52.1 ± 3.61 µg/mL (≈ 128 µM); IC50 [3, 5]: 15.8 ± 1.72 µg/mL (≈ 38.7 µM)
C=C1C[C@H](O)[C@H](Br)C(C)(C)[C@@]12CCC(C)=C(Cl)C2 [(-)-elatol] | – | 4.39 | 12.27 ± 2.68 µg/mL (≈ 36.8 µM) | CC50 [4]: 53.91 ± 4.28 µg/mL (≈ 162 µM); ATCC® 30808™ IC50 ([3]; Table 2): 12.27 ± 2.68 µg/mL
C=C1C[C@H](O)[C@H](Br)C(C)(C)C12CCC(C)(Cl)C(Br)C2 (single isomer, unassigned; (-)) [(-)-rogiolol] | – | 5.57 | 8.18 ± 0.92 µg/mL (≈ 19.7 µM) | CC50 [4]: 45.56 ± 7.80 µg/mL (≈ 110 µM); ATCC® 30808™ IC50 ([3]; Table 2): 8.18 ± 0.92 µg/mL
(-)-3,10-dibromo-4-chloro-alpha-chamigrene | – | – | > 25 µg/mL | –
C=C1CC(O)C(Br)C(C)(C)C12CCC(C)=C(Cl)C2 (single isomer, unassigned; (+)) [(+)-elatol] | 54.03 | 57.02 | – | IC50 [1]: 0.38 ± 0.06 µg/mL (≈ 1.14 µM); CC50 at 24 h ([2]; j774a.1 macrophages): 20.5 ± 4.33 µg/mL (≈ 61.5 µM); IC50 ([3]; Naegleria fowleri, ATCC30808, Table 1, read-out: IC50): 0.36 ± 0.03 µg/mL (≈ 1.08 µM); IC50 [3, 5]: 0.36 ± 0.03 µg/mL (≈ 1.08 µM)
debromolauriterol | 1.07 | 2.74 | – | ATCC® 30215™ IC50 [1]: 14.13 ± 2.37 µg/mL; CC50 [4]: 15.17 ± 2.80 µg/mL; ATCC® 30808™ IC50 ([3]; Table 2): 5.54 ± 1.19 µg/mL
lauriterol | 6.85 | 5.97 | – | ATCC® 30215™ IC50 [1]: 3.45 ± 0.63 µg/mL; CC50 [4]: 23.65 ± 2.30 µg/mL; ATCC® 30808™ IC50 ([3]; Table 2): 3.96 ± 0.76 µg/mL
C=C1C[C@H](O)CC(C)(C)[C@@]12CCC(C)=C(Cl)C2 [(+)-debromoelatol] | – | – | > 25 µg/mL | –
C=C1C[C@@H](O)[C@@H](Br)C(C)(C)[C@]12CC[C@](C)(Cl)[C@@H](Br)C2 [(-)-cartilagineol] | – | – | > 25 µg/mL | –
C=C1CC[C@@H](Br)C(C)(C)[C@@]12CC[C@@](C)(Br)[C@H](Cl)C2 [(+)-obtusane] | – | – | > 25 µg/mL | –
C=C1C[C@@H](O)[C@@H](Br)C(C)(C)[C@]12CC[C@](C)(Br)[C@@H](Cl)C2 [(+)-obtusol] | – | – | > 25 µg/mL | –
C=C1C[C@@H](O)[C@@H](Br)C(C)(C)[C@]12CC[C@@](C)(O)[C@@H](Cl)C2 [(-)-dendroidiol] | – | – | > 25 µg/mL | –
